Assay results from patent US20220411362A1, “DITERPENOID COMPOUNDS THAT ACT ON PROTEIN KINASE C (PKC)” (K-Gen, Inc., priority 2019, published 2022).

How the values were obtained:
[1] = molecular target: T1, C1b domain of human PKCδ (Homo sapiens, UniProt Q05655); assay: Competitive 3H-PDBu binding to C1b domain of PKCδ; details: Ki PKCδ, 3H-PDBu competition
T1 construct: Genes encoding C1b domains of human PKCα, δ, ε, θ, and PKD1 (PKCμ) were synthesized; made in house; host or cells: E. coli BL21(DE3)
How it was run: (§1)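 Ki derived by Cheng-Prusoff from IC50, with each protein batch's measured ^3H-PDBu Kd. Displacement of ^3H-PDBu from E. coli-produced GST-fused C1b domains or full-length human PKC was run 10 min at 37°C plus 20 min on ice, with filter capture and scintillation counting.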

[2] = molecular target: T2, C1b domain of human PKCα (Homo sapiens, UniProt P17252); assay: biochemical; type: binding; details: 3H-PDBu competition; for Ki: Ki PKCα
T2 construct: Genes encoding C1b domains of human PKCα, δ, ε, θ, and PKD1 (PKCμ) were synthesized; made in house; host or cells: E. coli BL21(DE3)
How it was run: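 Competitive binding against 3H-PDBu tracer used recombinant GST-C1b fusion protein expressed in E. coli. Incubation ran 10 min at 37°C with shaking, then 20 min on ice, followed by filtration and scintillation counting of trapped 3H-PDBu. Affinity was derived using each protein preparation's experimentally determined Kd for 3H-PDBu.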

[3] = molecular target: T3, C1b domain of human PKCε (Homo sapiens, UniProt Q02156); assay: Competitive 3H-PDBu binding to C1b domain of PKCε
T3 construct: Genes encoding C1b domains of human PKCα, δ, ε, θ, and PKD1 (PKCμ) were synthesized; made in house; host or cells: E. coli BL21(DE3)
How it was run: as §1

[4] = molecular target: T4, C1b domain of human PKD1 (PKCμ) (Homo sapiens, UniProt Q15139); assay: biochemical; type: binding
T4 construct: Genes encoding C1b domains of human PKCα, δ, ε, θ, and PKD1 (PKCμ) were synthesized; made in house; host or cells: E. coli BL21(DE3)
T4 sequence (Q15139 270-320 limits assumed): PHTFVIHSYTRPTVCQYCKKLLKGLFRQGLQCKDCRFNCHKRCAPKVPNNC
How it was run: as §1

[5] = tested on: A549 non-small cell lung cancer cell line; assay: Proliferation of A549 (CellTiter Glo); type: cell-based; details: Homo sapiens, A549, 96 h, read-out: IC50 μM (A549 Cell Line)
How it was run: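 Luminescent CellTiter Glo read-out after 96 h compound exposure of A549 cells plated at 1,000/well and rested 24 h at 37° C; DMSO kept ≤0.25%, dilutions 3-fold. Inhibition taken relative to DMSO-treated wells; IC50, relative IC50 and top inhibition derived by curve fitting.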

[6] = tested on: Panc2.13 (Pancreatic) cell line; assay: Proliferation of Panc2.13; type: cell-based; details: for ratio of (IC50 of K01)/(IC50 of compound), Panc2.13: value in parenthesis; for IC50: read-out: IC50 in μM Panc2.13 (Pancreatic)
How it was run: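 After a 24 h settling period at 37° C, each line received compound from a 3-fold serial series with DMSO capped at 0.25%. Incubation ran 96 h before CellTiter Glo reagent was added. Inhibition % = (Max − sample)/Max × 100, with Max from DMSO-treated cells.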

[7] = tested on: HL-60 (Leukemia) cell line; assay: Proliferation of HL-60; type: cell-based; details: for ratio of (IC50 of K01)/(IC50 of compound), HL-60: value in parenthesis; for IC50: Homo sapiens, HL-60, read-out: IC50 in μM HL-60 (Leukemia)
How it was run: (§2)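 Viability-based proliferation test on KP-4, HL-60, Namalwa and Mino at line-specific densities, 96 h treatment, CellTiter Glo read-out. IC50 values are also reported as the ratio IC50(K01)/IC50(compound), which corrects for batch differences.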

[8] = tested on: Namalwa (Lymphoma) cell line; assay: Proliferation of Namalwa; type: cell-based; details: for ratio of (IC50 of K01)/(IC50 of compound), Namalwa: value in parenthesis; for IC50: read-out: IC50 in μM Namalwa (Lymphoma)
How it was run: as §2

[9] = tested on: PANC1 cells; assay: Sphere formation assay (cancer stemness); type: cell-based; details: Homo sapiens, PANC-1, read-out: concentration exhibiting at least 50% inhibition on the sphere forming efficiency
Protocol: A group of diterpenoid compounds of the present disclosure were tested to assess their effects on blocking formation of spheres from cancer cell lines such as PANC1, a K-Ras mutant pancreatic cell line. Briefly, PANC1 cells were harvested, re-suspended as single cell suspensions, counted and seeded into Ultra Low Attachment Culture 96-well plate (Corning, Cat #3474) at 100 cells/well in 100 μl of complete media (with 10% FBS) containing 2% Matrigel (Corning, Cat #354234) and DMSO or compounds. Six replicates per condition were seeded. The seeded cells were placed in the 37° C. tissue culture incubator. 10 μl of low serum containing media (with 0.1% FBS) was added to each well every week. Spheres formed after 3-4 weeks were counted. Sphere forming efficiency was expressed as percentage of # of spheres/# of cells seeded.

T1 sequence (Q05655 230-280 limits assumed): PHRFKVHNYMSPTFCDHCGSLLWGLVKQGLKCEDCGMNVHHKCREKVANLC
T3 sequence (Q02156 242-292 limits assumed): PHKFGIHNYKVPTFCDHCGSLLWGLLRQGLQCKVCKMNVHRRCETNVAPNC

| Compound | Ki [1] [nM] | Ki PKCα [2] | Ki [3] [nM] | Ki [4] [nM] | IC50 [5] [µM] | ratio of (IC50 of K01)/(IC50 of compound), Panc2.13 [6] | IC50 [6] [µM] | ratio of (IC50 of K01)/(IC50 of compound), HL-60 [7] | IC50 [7] [µM] | ratio of (IC50 of K01)/(IC50 of compound), Namalwa [8] | IC50 [8] [µM] | Ki [2] [nM] | IC50 [9] [nM] |
| --- | --- | --- | --- | --- | --- | --- | --- | --- | --- | --- | --- | --- | --- |
| CC1=C[C@H]2[C@@]3(O)[C@H](C)C[C@]4(OC(=O)[C@@H](N)CC5CCCCC5)[C@H]([C@@H]3C=C(CO)C[C@]2(O)C1=O)C4(C)C [Compound K101-C1327] | < 5 | E (E=>60 nM and ≤10 nM) | 1 to 30 | < 5 | 0.06 to 0.1 | 7.1 | 0.1 to 0.2 | 2.32 | 0.03 to 0.06 | 2.03 | 0.03 to 0.06 |  |  |
| CC1=C[C@H]2[C@@]3(O)[C@H](C)C[C@]4(OC(=O)[C@@H](N)[C@]56C[C@H]7C[C@H](C[C@H](C7)C5)C6)[C@H]([C@@H]3C=C(CO)C[C@]2(O)C1=O)C4(C)C [Compound K101-C1347] | < 5 |  | 5 to 10 | < 5 | 0.001 to 0.01 | 71.7 | 0.01 to 0.03 | 16.2 | 0.001 to 0.01 | 18.2 | 0.001 to 0.01 | 1 to 30 | ≤ 50 |
| CC1=C[C@H]2[C@@]3(O)[C@H](C)C[C@]4(OC(=O)[C@H](N)CCCCCCc5ccccc5)[C@H]([C@@H]3C=C(CO)C[C@]2(O)C1=O)C4(C)C [Compound K101-C134801] | 5 to 10 |  | 1 to 30 | < 5 | 0.01 to 0.03 | 13.4 | 0.06 to 0.1 | 4.43 | 0.01 to 0.03 | 4.93 | 0.01 to 0.03 | 400 to 800 | ≤ 150 |
| CC1=C[C@H]2[C@@]3(O)[C@H](C)C[C@]4(OC(=O)[C@@H](N)CCCCCCc5ccccc5)[C@H]([C@@H]3C=C(CO)C[C@]2(O)C1=O)C4(C)C [Compound K101-C134802] | < 5 |  | 1 to 30 | < 5 | 0.001 to 0.01 | 57.3 | 0.01 to 0.03 | 12.1 | 0.001 to 0.01 | 16.1 | 0.001 to 0.01 | 30 to 60 | ≤ 50 |
